Patent US7371921B2, “Nonhuman animal model non-responsive to mycoplasma-origin lipoprotein/lipopeptide” (Japan Science and Technology Agency, priority 2000, dated 2008)

Assays:
peritoneal macrophages [1] = assay: TNFá production by peritoneal macrophages in response to lipoprotein, LPS or PGN (ELISA); format: cell-based; settings: macrophages from TLR6 knockout mouse (TLR6−/−) compared with wild-type; 24 hours; 10 μM lipoprotein, 100 ng/ml LPS, various concentrations of PGN; FIG. 3
Method: (§1) Each of wild-type (wild-type), TLR6 knockout (TLR6−/−) and TLR2 knockout (TLR2−/−) mice were intraperitoneally injected with 2 ml of 4% thioglycollate medium (DIFCO). Three days later, peritoneal exudate cells were isolated from the peritoneal cavity of each mouse. These cells were cultured in RPMI1640 medium (GIBCO) supplemented with 10% fetal bovine serum (GIBCO) for 2 hours at 37° C. and washed with ice-cold Hank's buffered salt solution (HBSS; GIBCO) to remove nonadherent cells. Adherent cells were used as peritoneal macrophages for the following experiments.
Therefore, responsiveness of TLR6 knockout mouse to these LPS, lipoprotein derived from Spirochaeta, and peptidoglycan derived from Staphylococcus aureus was examined. Peritoneal macrophages (5×10^4 cells) of wild-type and TLR6 knockout mice prepared in Example 2 were cultured for 24 hours together with 10 μM B. burgdorferi-derived lipoprotein OspA or OspC, 10 μM T. pallidum-derived lipoprotein 17-kDa (17) or 47-kDa (47), 100 ng/ml LPS, or various concentrations of peptidoglycan (PGN) shown in FIG. 3. When culture was completed, concentrations of TNFá in culture supernatants were measured by ELISA respectively.

peritoneal macrophages [2] = assay: TNF-á production by peritoneal macrophages stimulated with lipopeptide; format: cell-based, mouse; settings: 24 hours, various concentrations, FIG. 4
Method: as §1
(§2) Responsiveness of peritoneal macrophages derived from a wild-type mouse or a TLR6 knockout mouse to lipopeptide was examined with synthetic Gram negative bacteria-derived lipopeptide JBT3002 and synthetic mycoplasma-derived lipopeptide MALP-2. Peritoneal macrophages (5×10^4 cells) of wild-type and TLR6 knockout mice prepared in Example 2 were cultured for 24 hours together with various concentrations of JBT3002 (provided by Dr. Z. Dong) or MALP-2 (provided by Dr. P. F. Muhlradt) shown in FIG. 4, and stimulated. When culture was completed, the production amounts of TNF-á (TNFá) and NO2^− (NO) in culture supernatants were measured (FIG. 4). NO2^− was measured by the Greiss method using NO2/NO3 Assay Kit (Dojindo Laboratories).

peritoneal macrophages [3] = assay: NO2^− production by peritoneal macrophages stimulated with lipopeptide (Greiss method); format: cell-based, mouse; settings: 24 hours, various concentrations, FIG. 4
Method: as §1, §2

NF-êB = NF-êB activation in peritoneal macrophages (nucleoprotein binding to NF-êB DNA probe, electrophoresis, autoradiography); format: cell-based, mouse; settings: 0.1 ng/ml JBT3002 or 0.3 ng/ml MALP-2 for 20 or 40 minutes, FIG. 5
Method: as §1
It is known that TLR signals activate IRAK, which is serine/threonine kinase, via an adapter molecule MyD88 and then activate MAP kinase and NF-êB (Immunity 11, 115-122, 1999). In addition, it is also known that a mycoplasma-derived lipoprotein/lipopeptide causes vital reaction via TLR2 and MyD88 signaling pathways (J. Immunol. 164, 554-557, 2000). Consequently, with wild-type, TLR6 knockout and TLR2 knockout mice, whether a bacteria-derived lipoprotein/lipopeptide activates intracellular signaling molecules was examined. Peritoneal macrophages (1×10^6 cells) of wild-type (wild-type) and TLR6 knockout (TLR6−/−) and TLR2 knockout (TLR2−/−) mice prepared in Example 2 were stimulated with 0.1 ng/ml JBT3002 or 0.3 ng/ml MALP-2 for 20 or 40 minutes, and nucleoproteins were extracted from macrophages of each mouse and incubated with a specific probe containing DNA binding site of NF-êB, then subjected to electrophoresis and visualized by autoradiography (FIG. 5).

[4] = macrophages from TLR6 knockout mouse (TLR6−/−)
[5] = macrophages from wild-type mouse

Molecule: lipopolysaccharide [LPS]
- TNFá in culture supernatant (peritoneal macrophages [1]): approximately the same amount of TNFá as macrophages derived from a wild-type mouse

Molecule: MALP-2
- production amount of TNF-á (peritoneal macrophages [2]; [4]): produced no TNF-á and NO2^−
- production amount of TNF-á (peritoneal macrophages [2]; [5]): increased the production amounts of TNF-á (TNFá) and NO2^− (NO) in a manner dependent on doses
- production amount of NO2^− (peritoneal macrophages [3]; [4]): produced no TNF-á and NO2^−
- production amount of NO2^− (peritoneal macrophages [3]; [5]): increased the production amounts of TNF-á (TNFá) and NO2^− (NO) in a manner dependent on doses
- activation of NF-êB (NF-êB; macrophages from TLR2 knockout mouse (TLR2−/−)): no activation was observed
- activation of NF-êB (NF-êB; [4]): no activation in response to MALP-2 was observed
- activation of NF-êB (NF-êB; [5]): activation of NF-êB in response to the stimulation with MALP-2 or JBT3002 was observed

Molecule: peptidoglycan [PGN]
- TNFá in culture supernatant (peritoneal macrophages [1]): approximately the same amount of TNFá as macrophages derived from a wild-type mouse

Molecule: OspA: B. burgdorferi-derived lipoprotein
- TNFá in culture supernatant (peritoneal macrophages [1]): approximately the same amount of TNFá as macrophages derived from a wild-type mouse

B1: OspC: B. burgdorferi-derived lipoprotein (protein, UniProt Q07337 19-210, looked up)
Outer surface protein C: CNNSGKDGNTSANSADESVKGPNLTEISKKITDSNAVLLAVKEVEALLSSIDEIAAKAIGKKIHQNNGLDTENNHNGSLLAGAYAISTLIKQKLDGLKNEGLKEKIDAAKKCSETFTNKLKEKHTDLGKEGVTDADAKEAILKTNGTKTKGAEELGKLFESVEVLSKAAKEMLANSVKELTSPVVAESPKKP
- TNFá in culture supernatant (peritoneal macrophages [1]): approximately the same amount of TNFá as macrophages derived from a wild-type mouse
